Laboratory results published in patent US11279733B2, “Peptide antibiotics” (priority 2017, dated 2022).
≈ marks a conversion by molar mass, not a printed value. Read-outs that look alike come from different tables or passages of the source. Positions of bridges follow the written chain, without caps; N, C: chain ends. Non-standard residues stand in square brackets, D forms with d. Residues, ends and D or L forms follow the SMILES beside them. *: point of attachment. dPhe(4-NO2) = N[C@H](Cc1ccc([N+](=O)[O-])cc1)C(=O)O; Decanoyl(3R-OH) = CCCCCCC[C@@H](O)CC(=O)*; dBip = N[C@H](Cc1ccc(-c2ccccc2)cc1)C(=O)O; dPhe(4-NH2) = Nc1ccc(C[C@@H](N)C(=O)O)cc1; d3Pal = N[C@H](Cc1cccnc1)C(=O)O; X6 = CC(C)CCCC(O)CC(=O)*; Dab = NCC[C@H](N)C(=O)O; Dap = NC[C@H](N)C(=O)O

Key:
[1] = tested on: A. baumannii ATCC 19606; conditions: ATCC 19606
Protocol: (§1) Bacteria were either obtained from American Type Culture Collection (ATCC; Manassas, Va., USA) or independent academic clinical isolate collections, as listed in Table 18 below. Bacteria were cultured in Nutrient broth (NB; Bacto Laboratories, catalogue No. 234000) or Mueller Hinton broth (MHB; Bacto Laboratories, catalogue No. 211443) at 37° C. overnight with shaking (˜180 RPM). A sample of each culture was then diluted 50-fold in fresh MHB and incubated at 37° C. for 2-3 h with shaking (˜180 RPM). Compound stock solutions were prepared as 0.64 mg/mL or 2.56 mg/mL in water. The compounds, at twice the final desired concentration, were serially diluted 2-fold across the wells of 96-well plates (Polystyrene, Corning, catalogue No. 3370). Mid-log phase bacterial cultures (after 2-3 h incubation) were diluted to a final concentration of 1×10^6 colony forming units (CFU)/mL, and 50 μL was added to each well giving a final cell density of 5×10^5 and a compound concentration range of 32 μg/mL to 0.015 μg/mL (128-0.06 μg/mL against P. aeruginosa PA9704).

[2] = tested on: A. baumannii GN_093 PmxR; conditions: GN 093 PmxR
Protocol: as §1

[3] = tested on: E. coli ATCC 25922; conditions: ATCC 25922
Protocol: as §1

[4] = tested on: K. pneumoniae ATCC 13883; conditions: ATCC 13883
Protocol: as §1

[5] = tested on: K. pneumoniae ATCC 700603, MDR; conditions: ATCC 700603
Protocol: as §1

[6] = tested on: K. pneumoniae ATCC BAA-2146, NDM-1 pos; conditions: ATCC BAA-2146
Protocol: as §1

[7] = tested on: K. pneumoniae GN_102 PmxR; conditions: GN 102 PmxR
Protocol: as §1

[8] = tested on: K. pneumoniae GN_106, PmxR; conditions: GN 106, PmxR
Protocol: as §1

[9] = tested on: P. aeruginosa ATCC 27853; conditions: ATCC 27853
Protocol: as §1

[10] = tested on: P. aeruginosa GN_043, PmxR
Protocol: as §1

[11] = tested on: P. aeruginosa GN_105, PmxR; conditions: GN 105, PmxR
Protocol: as §1

[12] = tested on: S. aureus ATCC 25923, MSSA; conditions: ATCC 25923
Protocol: as §1

| Structure (SMILES) | MIC, A. baumannii ATCC 19606 [1] [µg/mL] | MIC A. baumannii GN_093 PmxR [2] [µg/mL] | MIC, E. coli ATCC 25922 [3] [µg/mL] | MIC, K. pneumoniae ATCC 13883 [4] [µg/mL] | MIC, K. pneumoniae ATCC 700603, MDR [5] [µg/mL] | MIC, K. pneumoniae ATCC BAA-2146, NDM-1 pos [6] [µg/mL] | MIC K. pneumoniae GN_102 PmxR [7] [µg/mL] | MIC K. pneumoniae GN_106, PmxR [8] [µg/mL] | MIC, P. aeruginosa ATCC 27853 [9] [µg/mL] | MIC P. aeruginosa GN_043, PmxR ([10]; Table 6, polymyxin-resistant) [µg/mL] | MIC P. aeruginosa GN_105, PmxR [11] [µg/mL] | MIC, S. aureus ATCC 25923, MSSA [12] [µg/mL] | MIC A. baumannii ATCC 19606 [1] [µg/mL] | MIC E. coli ATCC 25922 [3] [µg/mL] | MIC K. pneumoniae ATCC 13883 [4] [µg/mL] | MIC K. pneumoniae ATCC 700603, MDR [5] [µg/mL] | MIC K. pneumoniae ATCC BAA-2146, NDM-1 pos [6] [µg/mL] | MIC P. aeruginosa ATCC 27853 [9] [µg/mL] | MIC S. aureus ATCC 25923, MSSA [12] [µg/mL] | other results |
| --- | --- | --- | --- | --- | --- | --- | --- | --- | --- | --- | --- | --- | --- | --- | --- | --- | --- | --- | --- | --- |
| CCCCCCC[C@@H](O)CC(=O)N[C@@H](CCCCN)C(=O)N[C@H]1CCNC(=O)[C@H](CC(C)C)NC(=O)[C@H](CCN)NC(=O)[C@H](CCN)NC(=O)[C@H](CC(C)C)NC(=O)[C@@H](Cc2ccccc2)NC(=O)[C@H](CCN)NC1=O [compound 5562, 3(R)OH-nC9CO-L-Lys-cyc[L-Dab-L-Dab-D-Phe-L-Leu-L-Dab-L-Dab-L-Leu]] ({Decanoyl(3R-OH)}-K[Dab][Dab][dF]L[Dab][Dab]L; lactam 2-C) | >32 | 32 (≈ 29.8 µM) | 8 (≈ 7.46 µM) | 8 (≈ 7.46 µM) | 4 (≈ 3.73 µM) | 8 (≈ 7.46 µM) | 4 (≈ 3.73 µM) | 4 (≈ 3.73 µM) | 2 (≈ 1.86 µM) | 4 (≈ 3.73 µM) | >32 | 32 (≈ 29.8 µM) | – | – | – | – | – | – | – | – |
| CCCCCCC[C@@H](O)CC(=O)N[C@@H](CCN)C(=O)N[C@H]1CCNC(=O)[C@H](CC(C)C)NC(=O)[C@H](CN)NC(=O)[C@H](CCN)NC(=O)[C@H](CC(C)C)NC(=O)[C@@H](Cc2ccc(-c3ccccc3)cc2)NC(=O)[C@H](CCN)NC1=O [compound 5565, 3(R)OH-nC9CO-L-Dab-cyc[L-Dab-L-Dab-D-Bip-L-Leu-L-Dab-L-Dap-L-Leu]] ({Decanoyl(3R-OH)}-[Dab][Dab][Dab][dBip]L[Dab][Dap]L; lactam 2-C) | – | 16 (≈ 14.5 µM) | – | – | – | – | 32 (≈ 28.9 µM) | 16 (≈ 14.5 µM) | – | – | 4 (≈ 3.62 µM) | – | 8 (≈ 7.23 µM) | 4 (≈ 3.62 µM) | 4 (≈ 3.62 µM) | 8 (≈ 7.23 µM) | 16 (≈ 14.5 µM) | 4 (≈ 3.62 µM) | 2 (≈ 1.81 µM) | MIC P. aeruginosa GN_043, PmxR ([10]; polymyxin-resistant): 2 µg/mL (≈ 1.81 µM) |
| CC(C)CCCC(O)CC(=O)N[C@@H](CCN)C(=O)N[C@H]1CCNC(=O)[C@H](CC(C)C)NC(=O)[C@H](CCN)NC(=O)[C@H](CCN)NC(=O)[C@H](CC(C)C)NC(=O)[C@@H](Cc2ccccc2)NC(=O)[C@H](CCN)NC1=O (stereo partly drawn) [compound 5566, nC5(7-Me)CH(OH)CH2CO-L-Dab-cyc[L-Dab-L-Dab-D-Phe-L-Leu-L-Dab-L-Dab-L-Leu]] (X6-[Dab][Dab][Dab][dF]L[Dab][Dab]L; lactam 2-C) | 8 (≈ 7.76 µM) | 16 (≈ 15.5 µM) | 4 (≈ 3.88 µM) | 4 (≈ 3.88 µM) | 8 (≈ 7.76 µM) | 16 (≈ 15.5 µM) | 32 (≈ 31.1 µM) | 16 (≈ 15.5 µM) | 4 (≈ 3.88 µM) | 2 (≈ 1.94 µM) | 4 (≈ 3.88 µM) | 2 (≈ 1.94 µM) | – | – | – | – | – | – | – | – |
| CCCCCCC[C@@H](O)CC(=O)N[C@H](Cc1c[nH]c2ccccc12)C(=O)N[C@H]1CCNC(=O)[C@H](CC(C)C)NC(=O)[C@H](CCN)NC(=O)[C@H](CCN)NC(=O)[C@H](Cc2ccccc2)NC(=O)[C@@H](CC(C)C)NC(=O)[C@H](CCN)NC1=O [compound 6426, 3(R)OH-nC9CO-D-Trp-cyc[L-Dab-L-Dab-D-Leu-L-Phe-L-Dab-L-Dab-L-Leu]] ({Decanoyl(3R-OH)}-[dW][Dab][Dab][dL]F[Dab][Dab]L; lactam 2-C) | – | 16 (≈ 14.2 µM) | – | – | – | – | 4 (≈ 3.54 µM) | 4 (≈ 3.54 µM) | – | – | 8 (≈ 7.08 µM) | – | 16 (≈ 14.2 µM) | 4 (≈ 3.54 µM) | 8 (≈ 7.08 µM) | 8 (≈ 7.08 µM) | 8 (≈ 7.08 µM) | 8 (≈ 7.08 µM) | 8 (≈ 7.08 µM) | MIC P. aeruginosa GN_043, PmxR ([10]; P. aeruginosa GN_043, PmxR): 8 µg/mL (≈ 7.08 µM) |
| CCCCCCC[C@@H](O)CC(=O)N[C@H](Cc1ccc([N+](=O)[O-])cc1)C(=O)N[C@H]1CCNC(=O)[C@H](CC(C)C)NC(=O)[C@H](CCN)NC(=O)[C@H](CCN)NC(=O)[C@H](Cc2ccccc2)NC(=O)[C@@H](CC(C)C)NC(=O)[C@H](CCN)NC1=O [compound 6433, 3(R)OH-nC9CO-D-4NO2Phe-cyc[L-Dab-L-Dab-D-Leu-L-Phe-L-Dab-L-Dab-L-Leu]] ({Decanoyl(3R-OH)}-[dPhe(4-NO2)][Dab][Dab][dL]F[Dab][Dab]L; lactam 2-C) | – | 16 (≈ 14.1 µM) | – | – | – | – | 4 (≈ 3.52 µM) | 4 (≈ 3.52 µM) | – | – | 8 (≈ 7.04 µM) | – | 8 (≈ 7.04 µM) | 8 (≈ 7.04 µM) | 8 (≈ 7.04 µM) | 8 (≈ 7.04 µM) | 8 (≈ 7.04 µM) | 8 (≈ 7.04 µM) | 8 (≈ 7.04 µM) | MIC P. aeruginosa GN_043, PmxR ([10]; P. aeruginosa GN_043, PmxR): 4 µg/mL (≈ 3.52 µM) |
| CCCCCCC[C@@H](O)CC(=O)N[C@H](Cc1c[nH]c2ccccc12)C(=O)N[C@H]1CCNC(=O)[C@H](CC(C)C)NC(=O)[C@H](CCN)NC(=O)[C@H](CCN)NC(=O)[C@H](CC(C)C)NC(=O)[C@@H](Cc2ccccc2)NC(=O)[C@H](CCN)NC1=O [compound 6441, 3(R)OH-nC9CO-D-Trp-cyc[L-Dab-L-Dab-D-Phe-L-Leu-L-Dab-L-Dab-L-Leu]] ({Decanoyl(3R-OH)}-[dW][Dab][Dab][dF]L[Dab][Dab]L; lactam 2-C) | 16 (≈ 14.2 µM) | 32 (≈ 28.3 µM) | 16 (≈ 14.2 µM) | 16 (≈ 14.2 µM) | 8 (≈ 7.08 µM) | 8 (≈ 7.08 µM) | 8 (≈ 7.08 µM) | 4 (≈ 3.54 µM) | 16 (≈ 14.2 µM) | 8 (≈ 7.08 µM) | 16 (≈ 14.2 µM) | 8 (≈ 7.08 µM) | – | – | – | – | – | – | – | – |
| CCCCCCC[C@@H](O)CC(=O)N[C@H](Cc1ccc(N)cc1)C(=O)N[C@H]1CCNC(=O)[C@H](CC(C)C)NC(=O)[C@H](CCN)NC(=O)[C@H](CCN)NC(=O)[C@H](CC(C)C)NC(=O)[C@@H](Cc2ccccc2)NC(=O)[C@H](CCN)NC1=O [compound 6444, 3(R)OH-nC9CO-D-4NH2Phe-cyc[L-Dab-L-Dab-D-Phe-L-Leu-L-Dab-L-Dab-L-Leu]] ({Decanoyl(3R-OH)}-[dPhe(4-NH2)][Dab][Dab][dF]L[Dab][Dab]L; lactam 2-C) | 32 (≈ 28.9 µM) | 32 (≈ 28.9 µM) | 8 (≈ 7.23 µM) | 8 (≈ 7.23 µM) | 8 (≈ 7.23 µM) | 8 (≈ 7.23 µM) | 8 (≈ 7.23 µM) | 8 (≈ 7.23 µM) | 16 (≈ 14.5 µM) | 32 (≈ 28.9 µM) | 16 (≈ 14.5 µM) | >32 | – | – | – | – | – | – | – | – |
| CCCCCCC[C@@H](O)CC(=O)N[C@H](Cc1cccnc1)C(=O)N[C@H]1CCNC(=O)[C@H](CC(C)C)NC(=O)[C@H](CCN)NC(=O)[C@H](CCN)NC(=O)[C@H](CC(C)C)NC(=O)[C@@H](Cc2ccccc2)NC(=O)[C@H](CCN)NC1=O [compound 6445, 3(R)OH-nC9CO-D-3PyPhe-cyc[L-Dab-L-Dab-D-Phe-L-Leu-L-Dab-L-Dab-L-Leu]] ({Decanoyl(3R-OH)}-[d3Pal][Dab][Dab][dF]L[Dab][Dab]L; lactam 2-C) | 32 (≈ 29.3 µM) | >32 | 8 (≈ 7.32 µM) | 4 (≈ 3.66 µM) | 8 (≈ 7.32 µM) | 8 (≈ 7.32 µM) | 8 (≈ 7.32 µM) | 4 (≈ 3.66 µM) | 16 (≈ 14.6 µM) | 8 (≈ 7.32 µM) | 8 (≈ 7.32 µM) | >32 | – | – | – | – | – | – | – | – |
